Read-outs that look alike come from different tables or passages of the source. Positions of bridges follow the written chain, without caps; N, C: chain ends. Residues, ends and D or L forms follow the SMILES beside them.
Assays:
Experiment in all cases: cell-based
[1] = molecular target: hNav1.5 (Homo sapiens, UniProt Q14524)
[2] = molecular target: hNav1.7 (Homo sapiens, UniProt Q15858); type: cell-based
[3] = molecular target: hNav1.3 (Homo sapiens, UniProt Q9NY46); conditions: IonWorks Quattro, read-out: IWQ Use Nav1.3
[4] = IonWorks Quattro, use-dependent, […], read-out: IWQ Use Nav1.5

Chain of hNav1.5 (Q14524 whole entry, looked up): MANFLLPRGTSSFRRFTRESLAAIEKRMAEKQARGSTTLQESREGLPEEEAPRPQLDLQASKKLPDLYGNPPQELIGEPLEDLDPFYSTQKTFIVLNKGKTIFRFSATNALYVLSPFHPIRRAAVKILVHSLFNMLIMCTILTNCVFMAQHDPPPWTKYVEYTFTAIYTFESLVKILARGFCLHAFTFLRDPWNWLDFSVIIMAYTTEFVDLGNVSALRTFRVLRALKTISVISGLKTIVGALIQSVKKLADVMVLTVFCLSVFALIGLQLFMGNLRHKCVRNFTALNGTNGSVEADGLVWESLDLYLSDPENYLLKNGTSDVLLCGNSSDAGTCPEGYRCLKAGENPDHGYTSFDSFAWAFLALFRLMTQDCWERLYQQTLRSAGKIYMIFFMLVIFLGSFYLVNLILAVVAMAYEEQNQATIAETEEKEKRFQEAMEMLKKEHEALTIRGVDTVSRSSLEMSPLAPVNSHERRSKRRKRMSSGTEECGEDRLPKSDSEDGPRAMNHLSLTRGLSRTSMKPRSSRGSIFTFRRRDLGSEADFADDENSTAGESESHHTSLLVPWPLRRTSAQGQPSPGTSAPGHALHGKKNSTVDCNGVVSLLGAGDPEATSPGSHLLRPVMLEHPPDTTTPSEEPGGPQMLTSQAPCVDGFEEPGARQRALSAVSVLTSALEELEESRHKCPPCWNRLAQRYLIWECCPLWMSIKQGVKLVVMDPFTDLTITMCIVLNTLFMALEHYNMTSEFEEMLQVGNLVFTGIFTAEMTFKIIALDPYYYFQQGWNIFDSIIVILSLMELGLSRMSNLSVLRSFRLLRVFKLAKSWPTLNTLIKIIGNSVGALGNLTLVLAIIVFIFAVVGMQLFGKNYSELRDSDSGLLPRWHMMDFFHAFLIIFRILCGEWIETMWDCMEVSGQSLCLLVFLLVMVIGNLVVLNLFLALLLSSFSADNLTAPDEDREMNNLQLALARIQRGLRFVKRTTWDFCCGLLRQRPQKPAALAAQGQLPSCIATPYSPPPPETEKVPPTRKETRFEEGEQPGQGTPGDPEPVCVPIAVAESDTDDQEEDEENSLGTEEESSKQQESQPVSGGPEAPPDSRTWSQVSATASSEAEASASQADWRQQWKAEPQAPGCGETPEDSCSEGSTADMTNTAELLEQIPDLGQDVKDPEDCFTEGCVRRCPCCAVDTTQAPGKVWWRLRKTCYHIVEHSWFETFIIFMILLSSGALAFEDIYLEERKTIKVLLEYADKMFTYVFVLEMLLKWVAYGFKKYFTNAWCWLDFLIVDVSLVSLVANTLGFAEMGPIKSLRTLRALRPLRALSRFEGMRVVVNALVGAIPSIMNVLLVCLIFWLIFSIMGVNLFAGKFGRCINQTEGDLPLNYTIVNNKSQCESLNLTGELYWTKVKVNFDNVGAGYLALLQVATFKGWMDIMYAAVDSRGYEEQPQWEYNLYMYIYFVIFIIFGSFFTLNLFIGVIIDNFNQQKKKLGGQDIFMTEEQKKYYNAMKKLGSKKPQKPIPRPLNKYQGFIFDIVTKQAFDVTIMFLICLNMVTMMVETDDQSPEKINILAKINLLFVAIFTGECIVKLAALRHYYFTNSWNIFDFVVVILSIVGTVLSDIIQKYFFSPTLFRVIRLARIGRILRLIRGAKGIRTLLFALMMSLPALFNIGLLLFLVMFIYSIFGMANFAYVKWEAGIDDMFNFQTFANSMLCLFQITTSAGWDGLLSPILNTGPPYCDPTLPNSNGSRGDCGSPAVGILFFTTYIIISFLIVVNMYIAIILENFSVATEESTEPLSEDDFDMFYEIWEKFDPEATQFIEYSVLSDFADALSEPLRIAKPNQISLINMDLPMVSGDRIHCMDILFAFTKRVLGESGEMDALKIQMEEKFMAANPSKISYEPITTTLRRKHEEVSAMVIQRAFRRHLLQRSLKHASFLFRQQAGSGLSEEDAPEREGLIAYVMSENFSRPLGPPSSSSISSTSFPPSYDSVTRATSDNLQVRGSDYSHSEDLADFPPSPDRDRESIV
Chain of hNav1.7 (Q15858 whole entry, looked up): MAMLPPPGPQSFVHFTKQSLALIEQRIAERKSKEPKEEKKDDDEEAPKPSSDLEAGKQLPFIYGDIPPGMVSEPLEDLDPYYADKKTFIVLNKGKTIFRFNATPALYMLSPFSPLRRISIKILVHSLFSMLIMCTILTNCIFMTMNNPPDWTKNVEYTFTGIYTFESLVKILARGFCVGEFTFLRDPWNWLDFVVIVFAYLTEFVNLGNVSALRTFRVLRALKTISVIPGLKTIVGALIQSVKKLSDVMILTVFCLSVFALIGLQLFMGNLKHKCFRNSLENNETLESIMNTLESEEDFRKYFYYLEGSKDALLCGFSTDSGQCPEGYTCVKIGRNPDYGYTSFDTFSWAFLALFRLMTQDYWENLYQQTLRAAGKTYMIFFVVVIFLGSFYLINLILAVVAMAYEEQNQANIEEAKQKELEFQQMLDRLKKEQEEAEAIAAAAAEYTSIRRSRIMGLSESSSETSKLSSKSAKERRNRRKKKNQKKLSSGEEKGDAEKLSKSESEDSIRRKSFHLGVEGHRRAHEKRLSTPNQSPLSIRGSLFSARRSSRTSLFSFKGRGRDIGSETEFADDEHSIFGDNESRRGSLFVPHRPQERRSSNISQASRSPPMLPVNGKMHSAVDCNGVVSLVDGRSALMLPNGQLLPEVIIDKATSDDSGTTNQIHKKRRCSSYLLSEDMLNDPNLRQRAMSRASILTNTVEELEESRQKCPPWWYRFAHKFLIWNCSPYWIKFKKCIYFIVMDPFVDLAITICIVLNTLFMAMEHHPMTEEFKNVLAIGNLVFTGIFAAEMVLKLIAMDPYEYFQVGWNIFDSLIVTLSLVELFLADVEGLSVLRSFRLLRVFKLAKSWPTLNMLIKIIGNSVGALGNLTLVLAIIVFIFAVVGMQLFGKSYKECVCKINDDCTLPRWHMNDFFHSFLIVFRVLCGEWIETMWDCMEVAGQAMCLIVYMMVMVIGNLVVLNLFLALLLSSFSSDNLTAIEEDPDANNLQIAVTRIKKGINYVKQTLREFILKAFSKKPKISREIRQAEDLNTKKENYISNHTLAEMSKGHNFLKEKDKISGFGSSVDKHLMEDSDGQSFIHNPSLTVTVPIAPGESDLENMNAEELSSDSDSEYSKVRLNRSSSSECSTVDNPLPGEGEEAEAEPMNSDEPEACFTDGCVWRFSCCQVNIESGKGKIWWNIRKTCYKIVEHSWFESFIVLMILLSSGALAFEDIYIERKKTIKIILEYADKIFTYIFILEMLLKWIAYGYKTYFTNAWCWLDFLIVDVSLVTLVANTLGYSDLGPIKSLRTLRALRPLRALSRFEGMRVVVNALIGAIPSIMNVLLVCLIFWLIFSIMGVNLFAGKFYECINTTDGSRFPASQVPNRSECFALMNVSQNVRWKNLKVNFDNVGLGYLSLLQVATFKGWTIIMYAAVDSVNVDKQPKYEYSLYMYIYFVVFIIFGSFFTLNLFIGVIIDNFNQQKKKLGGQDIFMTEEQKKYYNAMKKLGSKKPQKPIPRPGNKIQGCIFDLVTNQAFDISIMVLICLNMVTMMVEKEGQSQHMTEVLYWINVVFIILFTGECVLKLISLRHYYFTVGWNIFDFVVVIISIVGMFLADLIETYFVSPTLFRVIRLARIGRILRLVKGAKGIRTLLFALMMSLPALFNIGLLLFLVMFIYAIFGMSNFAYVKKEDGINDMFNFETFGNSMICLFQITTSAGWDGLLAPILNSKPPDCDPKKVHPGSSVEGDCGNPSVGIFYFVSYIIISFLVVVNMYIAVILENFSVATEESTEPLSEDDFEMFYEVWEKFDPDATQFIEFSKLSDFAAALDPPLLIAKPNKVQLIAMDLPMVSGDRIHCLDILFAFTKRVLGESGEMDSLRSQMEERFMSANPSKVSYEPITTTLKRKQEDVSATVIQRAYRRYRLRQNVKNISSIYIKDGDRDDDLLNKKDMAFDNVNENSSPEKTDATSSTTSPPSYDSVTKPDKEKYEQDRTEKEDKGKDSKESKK

CC[C@H](C)[C@@H]1NC(=O)[C@@H]2CSSC[C@@H]3NC(=O)[C@H](C(C)C)NC(=O)[C@H](CC(C)C)NC(=O)[C@H](CC(N)=O)NC(=O)[C@@H]4CCCN4C(=O)[C@H](CCCNC(=N)N)NC(=O)[C@H](CSSC[C@H](NC(=O)[C@@H](N)CC(=O)O)C(=O)N[C@@H](CC(C)C)C(=O)NCC(=O)N[C@@H](Cc4ccccc4)C(=O)N[C@@H](CCSC)C(=O)N[C@@H](CCCNC(=N)N)C(=O)N[C@@H](CCCCN)C(=O)N2)NC(=O)[C@H](CSSC[C@@H](C(=O)N[C@@H](CCCCN)C(=O)N[C@@H](Cc2ccc(O)cc2)C(=O)N[C@H](C(=O)N[C@@H](Cc2ccccc2)C(=O)N[C@@H](CCCCN)C(N)=O)C(C)C)NC(=O)[C@H](Cc2c[nH]c4ccccc24)NC(=O)[C@H](CCCCN)NC(=O)[C@H](Cc2c[nH]cn2)NC(=O)[C@H]([C@@H](C)O)NC(=O)[C@H](CCCNC(=N)N)NC(=O)[C@H](CO)NC3=O)NC(=O)[C@H](CCCCN)NC(=O)[C@H](CC(=O)O)NC(=O)[C@H](CC(N)=O)NC(=O)[C@H](CC(=O)O)NC(=O)[C@@H]2CCCN2C1=O [compound 60]
IC50 [1, 4]: 12.5 µM | IC50 ([2]; IonWorks Quattro, use-dependent, […], read-out: IWQ Use Nav1.7 (μm)): 590 nM | IC50 ([3]; use-dependent, […]): 210 nM

CSCC[C@@H]1NC(=O)[C@H](Cc2ccccc2)NC(=O)CNC(=O)[C@H](CC(C)C)NC(=O)[C@@H](NC(=O)[C@@H](N)CC(=O)O)CSSC[C@@H]2NC(=O)[C@@H]3CSSC[C@@H](C(=O)N[C@@H](CCCCN)C(=O)N[C@@H](Cc4ccc(O)cc4)C(=O)N[C@H](C(=O)N[C@@H](Cc4ccccc4)C(N)=O)C(C)C)NC(=O)[C@H](Cc4c[nH]c5ccccc45)NC(=O)[C@H](CCCCN)NC(=O)[C@H](Cc4cnc[nH]4)NC(=O)[C@H]([C@@H](C)O)NC(=O)[C@H](CCCNC(=N)N)NC(=O)[C@H](CO)NC(=O)[C@H](CSSC[C@H](NC(=O)[C@H](CCCCN)NC(=O)[C@H](CCCNC(=N)N)NC1=O)C(=O)N[C@@H](CCCNC(=N)N)C(=O)N1CCC[C@H]1C(=O)N[C@@H](CC(=O)O)C(=O)N[C@@H](CC(N)=O)C(=O)N[C@@H](CC(=O)O)C(=O)N[C@@H](CCCCN)C(=O)N3)NC(=O)[C@H](C(C)C)NC(=O)[C@H](CC(C)C)NC(=O)[C@H](CC(N)=O)NC(=O)[C@@H]1CCCN1C(=O)[C@H](CCCNC(=N)N)NC2=O [compound 66] (H-DCLGFMRKCRPDNDKCCRPNLVCSRTHKWCKYVF-NH2; disulfide 2-17, 9-23, 16-30)
IC50 ([1]; IonWorks Quattro, Use, read-out: IWQ Use Nav1.5): 15.2 µM | IC50 [2]: 160 nM | IC50 ([3]; Use): 110 nM

CC[C@H](C)[C@@H]1NC(=O)[C@@H]2CSSC[C@@H]3NC(=O)[C@H](C(C)C)NC(=O)[C@H](CC(C)C)NC(=O)[C@H](CC(N)=O)NC(=O)[C@@H]4CCCN4C(=O)[C@H](CCCNC(=N)N)NC(=O)[C@H](CSSC[C@H](NC(=O)[C@@H](N)CC(=O)O)C(=O)N[C@@H](CC(C)C)C(=O)NCC(=O)N[C@@H](Cc4ccccc4)C(=O)N[C@@H](CCSC)C(=O)N[C@@H](CCCNC(=N)N)C(=O)N[C@@H](CCCCN)C(=O)N2)NC(=O)[C@H](CSSC[C@@H](C(=O)N[C@@H](CCCCN)C(=O)N[C@@H](Cc2ccc(O)cc2)C(=O)N[C@H](C(=O)N[C@@H](Cc2ccccc2)C(N)=O)C(C)C)NC(=O)[C@H](Cc2c[nH]c4ccccc24)NC(=O)[C@H](CCCCN)NC(=O)[C@H](Cc2cnc[nH]2)NC(=O)[C@H]([C@@H](C)O)NC(=O)[C@H](CCCNC(=N)N)NC(=O)[C@H](CO)NC3=O)NC(=O)[C@H](CCCNC(=N)N)NC(=O)[C@H](CC(=O)O)NC(=O)[C@H](CC(N)=O)NC(=O)[C@H](CC(=O)O)NC(=O)[C@@H]2CCCN2C1=O [compound 68] (H-DCLGFMRKCIPDNDRCCRPNLVCSRTHKWCKYVF-NH2; disulfide 2-17, 9-23, 16-30)
IC50 ([1]; IWQ Use Nav1.5 (μM)): 18.1 µM | IC50 ([2]; IonWorks Quattro, Use, read-out: IWQ Use Nav1.7): 200 nM | IC50 ([3]; Use): 140 nM

CC[C@H](C)[C@@H]1NC(=O)[C@@H]2CSSC[C@@H]3NC(=O)[C@H](C(C)C)NC(=O)[C@H](CC(C)C)NC(=O)[C@H](CC(N)=O)NC(=O)[C@@H]4CCCN4C(=O)[C@H](CCCNC(=N)N)NC(=O)[C@H](CSSC[C@H](NC(=O)[C@@H](N)CC(=O)O)C(=O)N[C@@H](CC(C)C)C(=O)NCC(=O)N[C@@H](Cc4ccccc4)C(=O)N[C@@H](CCSC)C(=O)N[C@@H](CCCNC(=N)N)C(=O)N[C@@H](CCCCN)C(=O)N2)NC(=O)[C@H](CSSC[C@@H](C(=O)N[C@@H](CCCCN)C(=O)N[C@@H](Cc2ccc(O)cc2)C(=O)N[C@H](C(=O)N[C@@H](Cc2ccccc2)C(N)=O)C(C)C)NC(=O)[C@H](Cc2c[nH]c4ccccc24)NC(=O)[C@H](CCCCN)NC(=O)[C@H](Cc2cnc[nH]2)NC(=O)[C@H](CCCNC(=N)N)NC(=O)[C@H](CCCNC(=N)N)NC(=O)[C@H](CO)NC3=O)NC(=O)[C@H](CCCCN)NC(=O)[C@H](CC(=O)O)NC(=O)[C@H](CC(N)=O)NC(=O)[C@H](CC(=O)O)NC(=O)[C@@H]2CCCN2C1=O [compound 70] (H-DCLGFMRKCIPDNDKCCRPNLVCSRRHKWCKYVF-NH2; disulfide 2-17, 9-23, 16-30)
IC50 ([1]; IWQ Use Nav1.5 (μM)): 3.06 µM | IC50 ([2]; Table 22, IonWorks Quattro, use, […], read-out: IWQ Use Nav1.7): 30 nM | IC50 ([3]; Table 22, use, […]): 8 nM

CC[C@H](C)[C@@H]1NC(=O)[C@@H]2CSSC[C@@H]3NC(=O)[C@H](C(C)C)NC(=O)[C@H](CC(C)C)NC(=O)[C@H](CC(N)=O)NC(=O)[C@@H]4CCCN4C(=O)[C@H](CCCNC(=N)N)NC(=O)[C@H](CSSC[C@H](NC(=O)[C@@H](N)CC(=O)O)C(=O)N[C@@H](CC(C)C)C(=O)NCC(=O)N[C@@H](Cc4ccccc4)C(=O)N[C@@H](CCSC)C(=O)N[C@@H](CCCNC(=N)N)C(=O)N[C@@H](CCCCN)C(=O)N2)NC(=O)[C@H](CSSC[C@@H](C(=O)N[C@@H](CCCCN)C(=O)N[C@@H](Cc2ccc(O)cc2)C(=O)N[C@H](C(=O)N[C@@H](Cc2ccccc2)C(N)=O)C(C)C)NC(=O)[C@H](Cc2c[nH]c4ccccc24)NC(=O)[C@H](CCCCN)NC(=O)[C@H](CCCNC(=N)N)NC(=O)[C@H]([C@@H](C)O)NC(=O)[C@H](CCCNC(=N)N)NC(=O)[C@H](CO)NC3=O)NC(=O)[C@H](CCCCN)NC(=O)[C@H](CC(=O)O)NC(=O)[C@H](CC(N)=O)NC(=O)[C@H](CC(=O)O)NC(=O)[C@@H]2CCCN2C1=O [compound 71] (H-DCLGFMRKCIPDNDKCCRPNLVCSRTRKWCKYVF-NH2; disulfide 2-17, 9-23, 16-30)
IC50 ([1]; Table 23, IonWorks Quattro, use, […], read-out: IWQ Use Nav1.5): 5.22 µM | IC50 [2]: 510 nM | IC50 ([3]; Table 23, use, […]): 510 nM

CC[C@H](C)[C@@H]1NC(=O)[C@@H]2CSSC[C@@H]3NC(=O)[C@H](C(C)C)NC(=O)[C@H](CC(C)C)NC(=O)[C@H](CC(N)=O)NC(=O)[C@@H]4CCCN4C(=O)[C@H](CCCNC(=N)N)NC(=O)[C@H](CSSC[C@H](NC(=O)[C@@H](N)CC(=O)O)C(=O)N[C@@H](CC(C)C)C(=O)NCC(=O)N[C@@H](Cc4ccccc4)C(=O)N[C@@H](CCSC)C(=O)N[C@@H](CCCNC(=N)N)C(=O)N[C@@H](CCCCN)C(=O)N2)NC(=O)[C@H](CSSC[C@@H](C(=O)N[C@@H](CCCNC(=N)N)C(=O)N[C@@H](Cc2ccc(O)cc2)C(=O)N[C@H](C(=O)N[C@@H](Cc2ccccc2)C(N)=O)C(C)C)NC(=O)[C@H](Cc2c[nH]c4ccccc24)NC(=O)[C@H](CCCCN)NC(=O)[C@H](Cc2cnc[nH]2)NC(=O)[C@H]([C@@H](C)O)NC(=O)[C@H](CCCNC(=N)N)NC(=O)[C@H](CO)NC3=O)NC(=O)[C@H](CCCCN)NC(=O)[C@H](CC(=O)O)NC(=O)[C@H](CC(N)=O)NC(=O)[C@H](CC(=O)O)NC(=O)[C@@H]2CCCN2C1=O [compound 73] (H-DCLGFMRKCIPDNDKCCRPNLVCSRTHKWCRYVF-NH2; disulfide 2-17, 9-23, 16-30)
IC50 ([1]; Table 25, IonWorks Quattro, use, […], read-out: IWQ Use Nav1.5): 9.17 µM | IC50 ([2]; Table 25, IonWorks Quattro, use, […], read-out: IWQ Use Nav1.7): 1360 nM | IC50 ([3]; Table 25, use, […]): 4950 nM

CC[C@H](C)[C@@H]1NC(=O)[C@@H]2CSSC[C@@H]3NC(=O)[C@H](C(C)C)NC(=O)[C@H](CC(C)C)NC(=O)[C@H](CC(N)=O)NC(=O)[C@@H]4CCCN4C(=O)[C@H](CCCNC(=N)N)NC(=O)[C@H](CSSC[C@H](NC(=O)[C@@H](N)CC(=O)O)C(=O)N[C@@H](CC(C)C)C(=O)NCC(=O)N[C@@H](Cc4ccccc4)C(=O)N[C@@H](CCSC)C(=O)N[C@@H](CCCNC(=N)N)C(=O)N[C@@H](CCCCN)C(=O)N2)NC(=O)[C@H](CSSC[C@@H](C(=O)N[C@@H](CCCCN)C(=O)N[C@@H](Cc2ccc(O)cc2)C(=O)N[C@H](C(=O)N[C@@H](CCCNC(=N)N)C(N)=O)C(C)C)NC(=O)[C@H](Cc2c[nH]c4ccccc24)NC(=O)[C@H](CCCCN)NC(=O)[C@H](Cc2cnc[nH]2)NC(=O)[C@H]([C@@H](C)O)NC(=O)[C@H](CCCNC(=N)N)NC(=O)[C@H](CO)NC3=O)NC(=O)[C@H](CCCCN)NC(=O)[C@H](CC(=O)O)NC(=O)[C@H](CC(N)=O)NC(=O)[C@H](CC(=O)O)NC(=O)[C@@H]2CCCN2C1=O [compound 75] (H-DCLGFMRKCIPDNDKCCRPNLVCSRTHKWCKYVR-NH2; disulfide 2-17, 9-23, 16-30)
IC50 [1, 4]: 8.99 µM | IC50 [2]: 3580 nM | IC50 ([3]; use-dependent, […]): 4690 nM

From US9340590B2 (priority 2011, dated 2016)
